Experiments:
[1] = tested on: mouse AGM VE-Cadherin+/CD45+ cells; assay: ex vivo expansion of AGM-derived embryonic HSPC, surface phenotype by FACS; type: cell-based; settings: combined with Notch agonist (such as Delta1ext-IgG) and one or more growth factors
Description: Embryos were harvested from pregnant females at 9.5 to 11.5 dpc, dissected free of maternal tissue and washed extensively in PBS containing 10% fetal bovine serum (FBS). Embryo age was precisely time by counting somite numbers. Yolks sac was dissected free from the embryo. For AGM dissections, 30 gauge needles were used to remove the caudal and rostral portions of the embryo above the forelimbs and below the hindlimbs, and subsequently dissect off the dorsal somite tissue and ventral abdominal contents. The embryo was then splayed open lying on its dorsal surface and remaining tissues surrounding the urogenital ridges were further dissected, leaving the intact AGM containing the dorsal aorta centrally. For embryos prior to AGM stage (E9.5 or less), the P-Sp region was dissected by removing the rostral and caudal portions of the embryo. Dissected yolk sac or AGM/P-Sp tissues were pooled and treated with 0.25% collagenase (Stem Cell Technologies, Vancouver, Canada) for 25-30 minutes at 37° C., pipetted to single cell suspension, and washed with PBS containing 10% FBS. For Ly6a-eGFP transgenic embryos, dissected embryos were processed separately and pooled for sorting, if indicated, following confirmation of GFP expression. […]

ALK7 = target: T1, ALK7 (Homo sapiens, UniProt Q8NER5); settings: cited from earlier work
T1 sequence (Q8NER5 21-493): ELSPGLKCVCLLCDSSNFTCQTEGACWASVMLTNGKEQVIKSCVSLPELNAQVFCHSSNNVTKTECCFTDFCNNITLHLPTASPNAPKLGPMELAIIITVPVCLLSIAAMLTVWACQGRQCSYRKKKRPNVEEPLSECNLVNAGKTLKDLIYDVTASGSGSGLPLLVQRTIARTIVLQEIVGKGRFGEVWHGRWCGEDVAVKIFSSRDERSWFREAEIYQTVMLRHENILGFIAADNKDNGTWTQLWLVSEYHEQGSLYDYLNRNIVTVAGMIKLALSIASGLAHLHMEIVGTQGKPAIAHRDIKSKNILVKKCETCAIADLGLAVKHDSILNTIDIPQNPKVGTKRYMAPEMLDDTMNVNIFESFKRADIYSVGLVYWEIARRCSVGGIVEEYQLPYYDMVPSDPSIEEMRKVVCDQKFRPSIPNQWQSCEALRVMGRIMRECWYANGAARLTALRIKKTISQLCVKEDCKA

human osteosarcoma cells = settings: cited from earlier work
[2] = tested on: ESC-derived endothelial cells; settings: cited from earlier work
human ESC = settings: Wang C, et al. Cell Res. 2012; cited from earlier work

Compound: NC(=O)c1ccc(-c2nc(-c3ccc4c(c3)OCO4)c(-c3ccccn3)[nH]2)cc1 [SB431542, 4-[4-(1,3-benzodioxol-5-yl)-5-(2-pyridinyl)-1H-imidazol-2-yl]benzamide]
- effect on expansion of the eHSC when combined with Notch agonist and growth factors [1]: additive and/or synergistic effect
- inhibition of ALK7 (ALK7): potent and selective inhibitor
- effect on TGF-β-induced proliferation of human osteosarcoma cells (human osteosarcoma cells): suppress
- effect on proliferation, differentiation and sheet formation of ESC-derived endothelial cells [2]: stimulate
- effect on general hematopoiesis from human ESC (human ESC): enhance general hematopoiesis, though not engrafting HSC
